In patent US11149047B2, “Aryl imidazoles for treatment of cancer” (Aptose Biosciences Inc., priority 2017, dated 2021):

What was measured:
[1] = test system: AML cells (MV4-11, KG-1, EOL-1); assay: Flow cytometry cell-cycle analysis, time course; assay type: cell-based; details: IC50 concentration
Description: Cells were treated as described above. To determine apoptosis, cells were stained with FITC-Annexin V and propidium iodide (PI; BD Pharmingen, catalog #556570) and then analyzed on BD Accuri C6 flow cytometer. To measure DNA synthesis and phases of cell cycle, treated cells were stained with 5-ethynyl-2′-deoxyuridine (Edu) Alexa Fluor 488 (Thermo Fisher Scientific, catalog #C10425) and PI (PI/RNase A staining solution, BD Biosciences, catalog #550825). The dead cells were excluded from analysis by using Live/Dead Fixable Far Red Dead Cell Stain Kit (Thermo Fisher Scientific, catalog #L34973). Staining was performed as per the manufacturers' instructions.
There was no perturbation of cell-cycle phase distribution in cells treated with vehicle alone. An increase in the fraction of cells in G0-G1 was detected as early as 2 hours, and this fraction continued to increase in a time-dependent manner throughout the 24-hour period of drug exposure (FIGS. 9D-F).

[2] = test system: γH2AX foci in CAOV3 cells; assay: Immunofluorescence staining of γH2AX foci; assay type: cell-based, human; details: CAOV3, time course, FIG. 2C
Description: Cells were harvested and washed with PBS twice, fixed in Z-fix solution (buffered zinc formalin fixatives, Anatech, Inc, Creek, Mich.) and permeabilized and blocked with 0.3% Triton X-100 in PBS containing 5% bovine serum albumin. The cells were then incubated with γ-H2AX antibody (1:250 dilution in 0.3% Triton X-100 in PBS containing 1% bovine serum albumin) overnight followed by three washes. Cells were incubated for 1 h with fluorescent-conjugated secondary antibodies (1:1000 dilution) followed by three washes. Slides were mounted with ProLong Gold antifade reagent with 4′,6-diamidino-2-phenylindole (DAPI) to stain cell nuclei (Molecular Probes). Fluorescence was viewed with Keyence Fluorescent Microscope using a 100× objective and quantitated with Image J software (the National Institutes of Health).
The structure of COMPOUND I is similar to drugs that bind to quadruplex structures in DNA which results in strand breaks; this led to the investigation of whether COMPOUND I caused damage to DNA. The parental Raji cells were treated with 0.5 μM COMPOUND I for increasing periods of time and induction of DNA damage was assessed by accumulation of the phosphorylated forms of ATM and γH2AX measured by Western blot analysis. […]

ds-DNA = assay: Modified FRET assay with ds-DNA hairpin oligo; assay type: binding
Description: FRET assay and data analysis was performed as described previously and modified by using dual labeled (5′ FAM-3′ BHQ1) single-stranded oligos. Melting temperature of each oligo was assessed in the presence of vehicle DMSO or escalating concentrations of COMPOUND I, Fe(COMPOUND I)3, CX-5461, or TMPyP4 using a Roche LightCycler 96 [at 37° C. for 300 seconds followed by temperature increased in […] intervals up to 91° C. (25 steps) with 300-second total incubation time at each temperature]. Drug and oligo reaction mixes were analyzed immediately or incubated for 6 hours at room temperature and then analyzed. […] COMPOUND I data are presented for 6-hour time point.
To assess selectivity for G4 structures over nonspecific interactions with ds-DNA, the FRET assay was repeated with a self-complimentary oligo that forms a ds-DNA hairpin in solution. […] The lack of effect on 45 s rRNA may reflect differences in availability of COMPOUND I and/or Fe(COMPOUND I)3 into the rRNA-rich nucleolar region of the nucleus. Nevertheless, COMPOUND I clearly can stabilize G4 structures, which provides an explanation for the inhibition of the expression of MYC and other genes. […]

KG-1 AML cells = assay: Uptake and efflux assay by mass spectrometry; assay type: in vitro ADME; details: exposed 1 or 6 hours, then drug-free media
Description: Cells exposed to COMPOUND I were homogenized in acetonitrile containing 5 ng of deuterated COMPOUND I standard. Samples were analyzed at the UCSD Molecular Mass Spectrometry Facility employing an Agilent 1260 liquid chromatograph (LC) system coupled with a Thermo LCQdeca mass spectrometer using positive ion mode electrospray ionization as the ion source.
Measurement of the kinetics of uptake and efflux of COMPOUND I in KG-1 AML cells determined by mass spectrometry indicated a gradual approach to steady state and a rapid initial efflux, but a very prolonged terminal efflux (FIGS. 20A and 20B). When KG-1 cells were exposed to COMPOUND I for either 1 or 6 hours and then placed in drug-free media, the efflux pattern consisted of a rapid phase occurring during the first 30 minutes followed by a prolonged terminal phase, such that significant amounts of COMPOUND I were retained in KG-1 cells for longer than 24 hours. […] (FIGS. 20C and 20D).

In the case of `Cc1[nH]c2ccc(F)cc2c1-c1nc2c3cccnc3c3ncccc3c2[nH]1` [COMPOUND I, 2-(5-fluoro-2-methyl-1H-indol-3-yl)-1H-imidazo[4,5-f][1,10]phenanthroline], the “earliest time an increase in the fraction of cells in G0-G1 was detected” value [1] is reported as 2 h, the “number of γH2AX foci” value [2] is reported as “increase in the number of foci was detectable at 1 h” and the “interaction with dsDNA” value (ds-DNA) is reported as “did not interact with dsDNA”. The “duration of rapid efflux phase” value (KG-1 AML cells) was 30 min and the “retention of significant amounts in cells” value (KG-1 AML cells) was > 24 h.
